# Laboratory results from patent US11123398B2, “Chemotherapeutic combinations of cationic antimicrobial peptides and chemotherapeutics” (LYTIX BIOPHARMA AS, priority 2014, dated 2021).
# Read-outs that look alike come from different tables or passages of the source. Non-standard residues stand in square brackets, D forms with d. Residues, ends and D or L forms follow the SMILES beside them. Dip = N[C@H](C(=O)O)C(c1ccccc1)c1ccccc1
# Tests used:
# A375 cells [1] = assay: Mitotracker confocal imaging (mitochondrial membrane potential); format: cell-based, human; conditions: short time after peptide treatment; data not shown
# Procedure: Cells were seeded as for live cell imaging, and treated with Mitotracker CMH2XROS (Invitrogen) at […] for 15 minutes prior to peptide treatment. Cells were treated with 17 μM LTX-315, with negative control serum-free RPMI only. After 60 min of incubation, cells were analyzed using a Zeiss microscope. All confocal imaging experiments were subsequently conducted at least twice with similar results.
# A375 cells [2] = assay: Bright field confocal live cell imaging; format: cell-based, human; conditions: LTX-315 at IC-50 value, majority of the cells
# Procedure: A375 cells were seeded at 10,000 cells/well in a complete media in Nunc Lab-Tec 8-wells chambered covered glass (Sigma) precoated with 25 μg/ml human fibronectin (Sigma) that were allowed to adhere overnight. Cells were washed twice with a serum-free RPMI, treated with peptide dissolved in RPMI and investigated using Bright on a Leica TCS SP5 confocal microscope, with a 63×/1.2 W objective. The microscope was equipped with an incubation chamber with CO2 and temperature control.
# [3] = Exposure time for cell killing (background statement); format: cell-based
# A375 cells [4] = assay: Fluorescence measurement of reactive oxygen species (ROS); format: cell-based, human; conditions: 15 minutes of incubation; concentration-dependent
# Procedure: A DCFDA cellular reactive oxygen species detection assay kit was purchased from Abcam®, and A375 cells seeded in a 96-well Costar black clear bottom plate with 20,000 cells per well incubated in 37° C. 16 hours prior to DCFDA assay. Cells were washed with a 100 μL/well of pre-warmed PBS one time, and incubated with 20 μM of DCFDA in a buffer solution supplied with the kit at 37° C. in a cell culture incubator for 45 min, and then washed again with a buffer solution of 100 μL/well. […] The fluorescence intensity was determined at an excitation wavelength of 485 nm and an emission wavelength of 530 nm on a FLUOstar Galaxy plate reader.
# human A547 cells = assay: TEM, A547 cells; format: cell-based; conditions: 10 μg/ml, 60 minutes
# A20 lymphoma = assay: LTX-315 with metronomic CY in A20 lymphoma model; format: in vivo, Balb/c mice; conditions: LTX-315 alone, 1 mg i.t. once a day for 3 days
# Procedure: Tumor cells were harvested, washed in RPMI-1640 and injected intradermally (i.d.) into the right side of the abdomen in Balb/c mice (5×10^6 A20 cells per mouse/50 μl RPMI-1640). When animals obtained palpable tumors (20-30 mm^2) animals were injected i.p. with a single dose of CY (day 4) dissolved in saline (2.0 mg CY/500 μl saline). […] Tumor size was measured using an electronic caliper and expressed as the area of an ellipse [(maximum dimension/2)×(minimum dimension/2)×π]. Animals were then euthanized when the product of the perpendicular tumor dimensions reached 130 mm^2 or when tumor ulceration developed.
# T-47D cell line = format: cell-based, human; conditions: 4 h
# Procedure: (§1) Tumor cells were plated in 96-well flat-bottom microtitration plates (Nunc, Dutscher, Brumath, France) and incubated at 37° C. for 24 hours before treatment in 190 μl of drug-free culture medium supplemented or not with 10% FBS for adherent or suspension growing cell lines, respectively.
# (§2) The adherent cell lines were washed once with 200 μl FBS-free culture medium before treatment. Tumor cells were incubated for 4 hours with 10 concentrations of compounds in ¼ dilution step with a top dose of 400 μM (range 4×10^−4 to 4×10^−10 M), with 1% (final concentration) Triton X-100 as positive control and FBS-free culture medium as negative control. The cells (190 μl) were incubated in a 200 μl final volume of FBS-free culture medium containing test substances at 37° C. under 5% CO2.
# (§3) Three independent experiments were performed, each concentration being tested in quadruplicate. Control cells were treated with vehicle alone. At the end of treatments, the cytotoxic activity was evaluated by a MTS assay (see § 3.3.).
# (§4) Like MTT, MTS is bioreduced by cells into a formazan product that is directly soluble in culture medium without processing, unlike MTT.
# (§5) At the end of the cells treatment, 40 μl of a 0.22 μm filtered freshly combined solution of MTS (20 ml at 2 mg/ml, Ref G1111, Batch 235897, Exp March 2009, Promega, Charbonnières, France) and PMS (1 ml at 0.92 mg/ml, Ref P9625, Batch 065K0961, Sigma) in Dulbecco's Phosphate Buffered Saline (DPBS, Ref 17-513Q, Batch 6MB0152, Cambrex), were added in each well. Culture plates were incubated for 2 h at 37° C. Absorbency (OD) were measured at 490 nm in each well using VICTOR^3™ 1420 multilabeled counter (Wallac, PerkinElmer, Courtaboeuf, France).
# (§6) IC50: drug concentration to obtain a 50% inhibition of cell proliferation.
# (§7) The dose-response curves were plotted using XLFit 3 (IDBS, United Kingdom). The IC50 determination values were calculated using the XLFit 3 software from semi-log curves. Individual IC50 determination values as well as mean and SD values were generated.
# SK-OV-3 cell line = format: cell-based, human; conditions: 4 h
# Procedure: as §1, §2, §3, §4, §5, §6, §7
# A375 cells [5] = assay: MTT viability assay, A375 melanoma; format: cell-based, human; conditions: read-out: IC-50, melanoma cells, MTT
# Procedure: The cytotoxic effect of LTX-315 was investigated using the colorimetric MTT viability assay as described in Eliassen et al. (2002), 22(5): pp 2703-10. The A375 cells were seeded at a concentration of 1×10^5 cells/ml in a volume of 0.1 ml in 96-well plates, and allowed to adhere in a complete growth media overnight. The media was then removed and the cells were washed twice in serum-free, RPMI-1650 media, before adding LTX-315 dissolved in serum-free RPMI at concentrations ranging from 2.5-300 μg/ml, and incubated for 5-180 minutes. Cells treated with a serum-free RPMI were used as negative control cells, while cells treated with 1% Triton X-100 in serum-free media were used as a positive control. The final results were calculated using the mean of three experiments, each with triplicate wells.
smiles,measurement,setting,value
"NCCCC[C@H](NC(=O)[C@@H](NC(=O)[C@H](Cc1c[nH]c2ccccc12)NC(=O)[C@H](CCCCN)NC(=O)[C@H](CCCCN)NC(=O)[C@H](Cc1c[nH]c2ccccc12)NC(=O)[C@H](Cc1c[nH]c2ccccc12)NC(=O)[C@H](CCCCN)NC(=O)[C@@H](N)CCCCN)C(c1ccccc1)c1ccccc1)C(N)=O [LTX-315, K-K-W-W-K-K-W-Dip-K-NH2] (H-KKWWKKW[Dip]K-NH2)",Mitochondrial membrane potential (Mitotracker signal),A375 cells [1],loss of mitochondrial signal
same,Time to rounding up and total collapse of the cells,A375 cells [2],15 to 60 min
same,Exposure time causing cell death,[3],30 min
same,ROS generation,A375 cells [4],Significant amounts of ROS were generated
same,Effect on mitochondrial membrane (TEM),human A547 cells,disintegration of the mitochondrial membrane
same,Animals with complete regression of palpable A20 tumors,A20 lymphoma,one of the animals
same,Animals with partial response,A20 lymphoma,remainder of the animals
same,IC50,T-47D cell line,1.18 ± 0.25 µM
same,IC50,SK-OV-3 cell line,7.16 ± 0.99 µM
same,IC50,A375 cells [5]; 90 minutes of incubation,14 µM
same,IC50,A375 cells [5]; five minutes of incubation,30 µM
